# Patent US9572788B2, “Cell permeable inhibitors of anaphase promoting complex” (President and Fellows of Harvard College, priority 2014, dated 2017)
# Where two headings read alike, the source gives them in different places.
# Experiments:
# Format in all cases: cell-based, human
# HeLa H2B-GFP cells [1] = experiment: Emi1 knockdown and proTAME rescue; conditions: 12 μM
# Procedure: HeLa H2B-GFP cells were plated in glass-bottom 24-well plates at 20% confluence one day prior to the experiment. Cells were transfected with a pool of Emi1 siRNA (Dharmacon M-012434-01, 5′-[…]-3′ (SEQ ID NO: 4); 5′-[…]-3′ (SEQ ID NO: 5); 5′-[…]-3′ (SEQ ID NO: 6); 5′-[…]-3′ (SEQ ID NO: 7)) or Control#3 siRNA (described above) at 18.5 nM with DharmaFect3. After 24 h, cells were treated with 0.06% DMSO or 12 μM proTAME. Live cell imaging was set up as described above.
# HeLa H2B-GFP cells [2] = experiment: Live cell imaging of mitotic duration and cell fate; conditions: for Response of arrested cells to roscovitine: 100 μM roscovitine at 12 h after release; for Mitotic phenotype: synchronized HeLa H2B-GFP
# Procedure: Detailed siRNA transfection and drug treatment schemes are described in supplemental experimental procedures. HeLa H2B-GFP cells were plated in DMEM with 10% FBS at 20% confluence. […] Live cell imaging was performed at 12 minute intervals on a Nikon TE2000E PFS inverted microscope fitted with an incubation chamber maintained at 37° C. and supplied with 5% CO2. Cell division was tracked by manual inspection of movies, and mitotic duration was measured as the time between the first frame of chromosome condensation and the frame of chromosome segregation (anaphase), decondensation (mitotic exit without anaphase) or cell death (chromosomes shrinking to a small bright dot).
# The imaging plate was mounted onto a motorized stage (Prior ProScan II) on a Nikon TE2000E PFS inverted microscope fitted with an incubation chamber maintained at 37° C. and supplied with 5% CO2. A 20× Plan Apo 0.75 NA or 40× Plan Fluor 0.75 NA objective lens was used as indicated and images were collected with 2×2 binning. […] TIFF files of each image were exported from Elements and used to build stacks and Quicktime movies with Metamorph imaging software (Molecular Devices). For manual analysis, mitotic duration is counted as the time between the first frame of chromosome condensation and the frame of chromosome segregation (anaphase) or decondensation (mitotic exit in the presence of nocodazole) or cell death (chromosomes shrinking to a small bright dot).
# HeLa H2B-GFP cells were plated in a 24-well plate in DMEM 10% FBS at 20% confluence one day prior to experiment and synchronized by double thymidine block as described above. […] Live cell imaging was set up as described above.
# HeLa H2B-GFP cells were plated in a 24-well plate in DMEM+10% FBS at 20% confluence one day prior to the experiment and synchronized by double thymidine block as described above. The cells were released from the first thymidine block into 200 μl OptiMem without FBS. Transfection was performed immediately after the first thymidine release. […] The two mixtures were left at room temperature for 5 min before being mixed together and incubated for additional 20 min and then added to the cells to a final volume of 250 μl. 4 h after transfection, 250 μl of DMEM+20% FBS were added to cells.
# HeLa H2B-GFP cells were plated in glass-bottom 24-well plates at 20% confluence one day prior to the experiment and synchronized by double thymidine block as described above. […] Cells were treated with 100 nM Hesperadin or DMSO 8 h after release from the second thymidine block and live cell imaging was set up as described above.
# HeLa H2B-GFP cells were plated in a 24-well plate in DMEM+10% FBS at 20% confluence one day prior to experiment and synchronized by double thymidine block as synchronized above. […] Live cell imaging was set up as described above.
# HeLa H2B-GFP cells were plated in a 24-well plate in DMEM+10% FBS at 20% confluence one day prior to experiment and synchronized by double thymidine block as described above. […] Untreated cells were used as the control. Live cell imaging was set up as described above. […] Alternatively, at 10 h after release from the second block, 10 μM MG132 with or without 25 μg/ml cycloheximide was added to the cells. […] Live cell imaging was set up as described above.
# HeLa H2B-GFP cells were plated in a 24-well plate in DMEM+10% FBS at 20% confluence one day prior to experiment and synchronized by double thymidine block as described above. Mad2 siRNA transfection was performed as described above. At 10 h after release from the second block, 10 μM MG132 with or without 25 μg/ml cycloheximide was added to the cells. Live cell imaging was set up as described above. Manual analysis was focused only on cells that entered mitosis after MG132 addition.
# Live cell imaging experiments. […] Nocodazole, taxol, proTAME, cyclinal and hesperadin were added to cells at 8 h after release. MG132 was added to cells at 10 h after release to allow mitotic entry.
# HeLa H2B-GFP cells [3] = experiment: Chromosome congression analysis; conditions: for Congression delay: 10 nM nocodazole or 12 μM proTAME; for Average chromosome congression time / Median chromosome congression time: Fig S4C
# Procedure: HeLa H2B-GFP cells were plated in 35 mm glass-bottom dishes (MatTek) in DMEM+10% FBS at 20% confluence one day prior to the experiment and synchronized by double thymidine block as described above. Drugs were added as follows to a final volume of 3 ml from 2× concentrated preparation in culture medium. DMSO (0.06%), proTAME (3 and 12 μM) or 10 nM Nocodazole were added 8 h after release from the second block, while MG132 (10 μM) was added at 10 h. H2B-GFP was imaged for 4 hrs every 3 min at 40× magnification as described above.
# [4] = Example 3, Mad2 knockdown, 12 μM proTAME, 300 nM nocodazole
# [5] = Example 3, without Mad2 knockdown, 12 μM proTAME, 300 nM nocodazole
# [6] = Fig 5A, synchronized HeLa cells, 780 nM
# [7] = Fig 5A, synchronized HeLa cells, 3 μM
# [8] = Fig 5A, synchronized HeLa cells, 12 μM
# [9] = Fig 5B, control siRNA, low proTAME concentration (4 μM)
# [10] = Fig 5B, partial Cdc20 knockdown (Cdc20 siRNA), proTAME 4 μM
# [11] = Fig 6A, MAD2 siRNA, 12 μM proTAME, 300 nM nocodazole
# [12] = Fig 6C, compounds 8 h after release, 12 μM proTAME, 300 nM nocodazole, 150 nM taxol, 100 nM hesperadin
# [13] = Fig 8A, 12 μM proTAME, 300 nM nocodazole or 150 nM taxol, ± 25 μg/ml cycloheximide 4 h later
# [14] = Fig S5G, after washout from nocodazole-induced arrest, release in proTAME 12 μM ± hesperadin 100 nM
# [15] = double-thymidine synchronized cells, Mad2 knockdown
# [16] = double-thymidine synchronized cells, without Mad2 knockdown
# [17] = proTAME 12 μM, MG132 10 μM, nocodazole 10 nM
# [18] = Fig 6A, control siRNA, 12 μM proTAME, 300 nM nocodazole
structure (smiles),measurement,setting,value
COC(=O)[C@H](CCCN/C(=N\C(=O)OCOC(=O)Cc1ccccc1)NC(=O)OCOC(=O)Cc1ccccc1)NS(=O)(=O)c1ccc(C)cc1 [proTAME],Rescue of mitotic entry defect in Emi1-depleted cells,HeLa H2B-GFP cells [1],substantially rescued the mitotic entry defect caused by depletion of Emi1
same,Average mitotic duration,HeLa H2B-GFP cells [2],1512.4 min
same,Median mitotic duration,HeLa H2B-GFP cells [2],1488 min
same,Mitotic duration,HeLa H2B-GFP cells [2]; 3 μM,5 h
same,Duration of mitotic arrest,HeLa H2B-GFP cells [2]; 12 μM proTAME,over 28 h
same,Extension of mitotic duration,"HeLa H2B-GFP cells [2]; 12 μM, SAC inactivated by Mad2 depletion",72 min
same,Extension of mitotic duration,"HeLa H2B-GFP cells [2]; 12 μM, intact SAC",1380 min
same,Response of arrested cells to roscovitine,HeLa H2B-GFP cells [2],induces rapid mitotic exit
same,Mitotic duration,"HeLa H2B-GFP cells [2]; Cdc20 levels reduced by 50% by siRNA, 4 μM",19.4 h
same,Duration of mitotic arrest,"HeLa H2B-GFP cells [2]; Example 2, 12 μM proTAME, DIC imaging",over 10 hours
same,Duration of metaphase arrest,"HeLa H2B-GFP cells [2]; Example 2, 12 (μM) proTAME, fluorescence imaging",more than 8 hours
same,Mitotic duration,"HeLa H2B-GFP cells [2]; Example 2, HeLa H2B-GFP fluorescence imaging, 3 μM proTAME, proAAME control",2 h
same,Median mitotic duration,HeLa H2B-GFP cells [2]; [4],120 min
same,Median mitotic duration,HeLa H2B-GFP cells [2]; [5],420 min
same,Average mitotic duration,HeLa H2B-GFP cells [2]; [6],165.4 min
same,Median mitotic duration,HeLa H2B-GFP cells [2]; [6],156 min
same,Average mitotic duration,HeLa H2B-GFP cells [2]; [7],444.6 min
same,Median mitotic duration,HeLa H2B-GFP cells [2]; [7],348 min
same,Average mitotic duration,HeLa H2B-GFP cells [2]; [8],1640.5 min
same,Median mitotic duration,HeLa H2B-GFP cells [2]; [8],1680 min
same,Average mitotic duration,HeLa H2B-GFP cells [2]; [9],496.5 min
same,Median mitotic duration,HeLa H2B-GFP cells [2]; [9],288 min
same,Average mitotic duration,HeLa H2B-GFP cells [2]; [10],1235.3 min
same,Median mitotic duration,HeLa H2B-GFP cells [2]; [10],1170 min
same,Average mitotic duration,HeLa H2B-GFP cells [2]; [11],121.7 min
same,Median mitotic duration,HeLa H2B-GFP cells [2]; [11],84 min
same,Average mitotic duration,HeLa H2B-GFP cells [2]; [12],1329.3 min
same,Median mitotic duration,HeLa H2B-GFP cells [2]; [12],1272 min
same,Average mitotic duration,HeLa H2B-GFP cells [2]; [13],1052.0 min
same,Median mitotic duration,HeLa H2B-GFP cells [2]; [13],972 min
same,Average mitotic duration,HeLa H2B-GFP cells [2]; [14],1516.4 min
same,Median mitotic duration,HeLa H2B-GFP cells [2]; [14],1410 min
same,Effect on mitotic exit,"HeLa H2B-GFP cells [2]; Mad2-knockdown cells, proTAME 12 μM, cyclinal 100 μM",only transiently delayed mitotic exit
same,Median mitotic duration,HeLa H2B-GFP cells [2]; Mad2 knockdown cells (12 min without proTAME),84 min
same,Mitotic duration,"HeLa H2B-GFP cells [2]; control-transfected cells, 4 μM",4.8 h
same,Duration of mitotic arrest,HeLa H2B-GFP cells [2]; [15],1.4 h
same,Duration of mitotic arrest,HeLa H2B-GFP cells [2]; [16],24.6 h
same,Duration of mitotic arrest,HeLa H2B-GFP cells [2]; in the absence of Mad2,approximately 2 hours
same,Effect on mitotic exit,HeLa H2B-GFP cells [2]; in the presence of hesperadin,only transiently delayed mitotic exit
same,Mitotic phenotype,HeLa H2B-GFP cells [2]; 780 nM or 3 μM,"remained in metaphase for up to several hours, but then proceeded through a normal anaphase"
same,Mitotic phenotype,HeLa H2B-GFP cells [2]; 12 μM,arrested in metaphase and subsequently died
same,Median mitotic arrest,"HeLa H2B-GFP cells [2]; synchronized, drugs 10 hrs after release, proTAME 1 μM, MG132 0.5 μM",216 min
same,Median mitotic delay/arrest,"HeLa H2B-GFP cells [2]; synchronized, drugs 10 hrs after release, proTAME 3 μM, low-dose MG132",438 min
same,Median mitotic duration,"HeLa H2B-GFP cells [2]; unsynchronized HeLa H2B-GFP, taxol 10 nM, proTAME 3 μM, control 60 min",132 min
same,Congression delay,HeLa H2B-GFP cells [3],6 min
same,Delay in chromosome congression,HeLa H2B-GFP cells [3]; 3 μM proTAME or 10 μM MG132,caused no delay in chromosome congression
same,"Time to achieve metaphase, average","HeLa H2B-GFP cells [3]; Example 2, 12 (μM) proTAME, 15 minutes for DMSO",40 min
same,Average chromosome congression time,HeLa H2B-GFP cells [3]; proTAME 3 μM,21.7 min
same,Median chromosome congression time,HeLa H2B-GFP cells [3]; proTAME 3 μM,21 min
same,Average chromosome congression time,HeLa H2B-GFP cells [3]; [17],26.0 min
same,Median chromosome congression time,HeLa H2B-GFP cells [3]; [17],24 min
"COC(=O)Nc1nc2ccc(C(=O)c3cccs3)cc2[nH]1 [Nocodazole, reference compound]",Prolongation of mitosis,HeLa H2B-GFP cells [2]; 10 nM nocodazole,20 min
same,Extension of mitotic duration,"HeLa H2B-GFP cells [2]; 10 nM, SAC-proficient cells",20 min
same,Response of arrested cells to roscovitine,HeLa H2B-GFP cells [2],induced instantaneous mitotic exit
same,Median mitotic duration,HeLa H2B-GFP cells [2]; [4],30 min
same,Median mitotic duration,HeLa H2B-GFP cells [2]; [5],1230 min
same,Average mitotic duration,HeLa H2B-GFP cells [2]; [11],98.2 min
same,Median mitotic duration,HeLa H2B-GFP cells [2]; [11],36 min
same,Average mitotic duration,HeLa H2B-GFP cells [2]; [18],1680.1 min
same,Median mitotic duration,HeLa H2B-GFP cells [2]; [18],1812 min
same,Average mitotic duration,HeLa H2B-GFP cells [2]; [12],1851.8 min
same,Median mitotic duration,HeLa H2B-GFP cells [2]; [12],2094 min
same,Average mitotic duration,HeLa H2B-GFP cells [2]; [13],1777.0 min
same,Median mitotic duration,HeLa H2B-GFP cells [2]; [13],2160 min
same,Duration of mitotic arrest,HeLa H2B-GFP cells [2]; [15],0.6 h
same,Duration of mitotic arrest,HeLa H2B-GFP cells [2]; [16],30 h
same,Congression delay,HeLa H2B-GFP cells [3],6 min
same,Average chromosome congression time,HeLa H2B-GFP cells [3]; [17],26.2 min
same,Median chromosome congression time,HeLa H2B-GFP cells [3]; [17],24 min
